ChEMBL document CHEMBL1139527, “Synthesis, modeling, and in vitro activity of (3'S)-epi-K-252a analogues. Elucidating the stereochemical requirements of the 3'-sugar alcohol on trkA tyrosine kinase activity” (J Med Chem, 2005)
pIC50: −log10 of the molar value.

Assays:
[1] = biological target: T1, High affinity nerve growth factor receptor (Homo sapiens, UniProt P04629); assay: Inhibition of NGF-stimulated TrkA phosphorylation in NIH3T3 cells; assay type: cell-based
[2] = Inhibition of [gamma-32P]-ATP binding to protein kinase C (1.5 ng) done for 10 min in pH 7.4 at 37 degree C with compound dissolved in DMSO using in In-Plate assay
[3] = biological target: T1, High affinity nerve growth factor receptor; assay: Inhibition of baculovirus expressed human trkA
[4] = Relative binding to PKC and TrkA

T1 sequence (P04629 whole entry): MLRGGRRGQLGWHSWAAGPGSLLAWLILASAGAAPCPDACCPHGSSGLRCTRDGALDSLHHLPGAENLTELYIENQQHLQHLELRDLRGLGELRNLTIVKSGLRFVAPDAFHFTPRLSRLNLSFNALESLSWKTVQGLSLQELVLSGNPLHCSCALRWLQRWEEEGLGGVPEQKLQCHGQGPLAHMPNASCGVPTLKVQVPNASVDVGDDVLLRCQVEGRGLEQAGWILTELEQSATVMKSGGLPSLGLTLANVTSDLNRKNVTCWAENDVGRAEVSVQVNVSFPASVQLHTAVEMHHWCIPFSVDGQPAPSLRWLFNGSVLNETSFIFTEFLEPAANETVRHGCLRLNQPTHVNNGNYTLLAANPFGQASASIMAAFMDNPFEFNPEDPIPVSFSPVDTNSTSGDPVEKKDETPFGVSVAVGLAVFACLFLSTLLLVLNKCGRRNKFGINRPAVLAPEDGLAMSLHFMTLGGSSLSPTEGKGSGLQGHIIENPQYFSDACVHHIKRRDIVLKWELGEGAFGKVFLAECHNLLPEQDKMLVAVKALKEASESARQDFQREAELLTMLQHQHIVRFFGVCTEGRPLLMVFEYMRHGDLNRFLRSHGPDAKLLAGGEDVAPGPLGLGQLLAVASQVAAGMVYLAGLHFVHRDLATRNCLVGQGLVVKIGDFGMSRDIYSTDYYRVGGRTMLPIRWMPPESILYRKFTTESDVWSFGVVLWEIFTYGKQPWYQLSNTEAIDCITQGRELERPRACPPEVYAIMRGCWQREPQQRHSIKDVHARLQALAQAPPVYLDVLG

Structure (SMILES)	pIC50 [1]	pIC50 [2]	pIC50 [3]	Ratio [4]
CC1(C)O[C@@H](n2c3ccccc3c3c4c(c5c6ccccc6[nH]c5c32)CNC4=O)C[C@@]1(O)CO	–	7.10	8.40	–
COC(=O)[C@]1(O)C[C@H]2O[C@]1(C)n1c3ccccc3c3c4c(c5c6ccccc6n2c5c31)C(=O)NC4	–	6.94	–	–
CC1(C)O[C@@H](n2c3ccccc3c3c4c(c5c6ccccc6[nH]c5c32)CNC4=O)C[C@]1(O)CO	–	6.66	8.40	–
COC(=O)[C@@]1(O)C[C@H]2O[C@]1(C)n1c3ccccc3c3c4c(c5c6ccccc6n2c5c31)C(=O)NC4 [K-252A]	–	6.60	–	–

More lines, now with the values ahead:

pIC50 [1]	pIC50 [2]	pIC50 [3]	Ratio [4]	Structure (SMILES)
> 8.00	6.07	8.52	–	C[C@]1(O)C[C@H]2O[C@]1(C)n1c3ccccc3c3c4c(c5c6ccccc6n2c5c31)C(=O)NC4
–	6.18	7.54	–	C[C@]12O[C@H](C[C@@]1(O)C(N)=O)n1c3ccccc3c3c4c(c5c6ccccc6n2c5c31)CNC4=O
–	6.94	8.54	39	CO[C@]1(CO)C[C@H]2O[C@]1(C)n1c3ccccc3c3c4c(c5c6ccccc6n2c5c31)C(=O)NC4
–	6.51	7.70	–	C[C@@]1(O)C[C@H]2O[C@]1(C)n1c3ccccc3c3c4c(c5c6ccccc6n2c5c31)C(=O)NC4
